Assay [1] concerns the target T1, human TPO receptor (c-mp1) (Homo sapiens, UniProt P40238).
T1 construct: expressed in transfected cells
T1 sequence (P40238 26-635): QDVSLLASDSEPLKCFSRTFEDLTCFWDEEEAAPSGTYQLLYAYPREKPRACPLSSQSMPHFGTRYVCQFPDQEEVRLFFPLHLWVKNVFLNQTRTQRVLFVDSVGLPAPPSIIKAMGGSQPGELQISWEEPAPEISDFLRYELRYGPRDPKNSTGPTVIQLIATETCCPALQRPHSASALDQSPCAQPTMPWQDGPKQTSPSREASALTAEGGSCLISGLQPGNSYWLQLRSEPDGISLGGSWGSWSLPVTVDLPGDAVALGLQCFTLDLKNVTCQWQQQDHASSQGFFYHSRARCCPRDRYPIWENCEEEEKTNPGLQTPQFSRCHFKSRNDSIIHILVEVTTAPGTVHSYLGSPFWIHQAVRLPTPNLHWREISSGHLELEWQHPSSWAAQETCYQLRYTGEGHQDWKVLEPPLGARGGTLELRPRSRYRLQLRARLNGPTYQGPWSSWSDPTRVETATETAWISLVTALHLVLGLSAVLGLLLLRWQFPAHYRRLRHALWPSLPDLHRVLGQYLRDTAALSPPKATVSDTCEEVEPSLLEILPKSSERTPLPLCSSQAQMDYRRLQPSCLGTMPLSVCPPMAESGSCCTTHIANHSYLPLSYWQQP
The assay is described as follows: Stimulation of proliferation of TPO-dependent cell line UT7/EPO-mpl (WST-8). Format: cell-based. Conditions: for EC50: concentration that yields a growth rate corresponding to 50% of the growth of UT-7/EPO-mpl observed in the presence of 10 ng/ml TPO. The procedure:
The reactivity of the compound of Synthetic Example 4 of the present invention with thrombopoietin (TPO) receptor was assayed using a human leukemic cell line, UT7/EPO-mpl.
(§1) UT7/EPO-mpl is a stable transformed cell line obtained by introducing into human leukemic cell line UT7/EPO a vector that induces expression of human TPO receptor (c-mp1) under control of cytomegalovirus immediate-early promoter by the method of Takatoku et al. (J. Biol. Chem., 272:7259-7263 (1997)). […] These two cell lines were subcultured in Iscove's modified Dulbecco's medium (IMDM; GIBCO) containing 10% fetal bovine serum (FBS; Thermo Electron or BioWest) using a CO2 incubator (5% CO2, 37° C.).
(§2) The subcultured cells described above were washed twice with phosphate buffered saline (PBS) and suspended in IMDM containing 10% FBS at a cell density of 6×10^4 cells/ml. The cell suspension was transferred to a 96-well tissue culture plate (CORNING) in 100-μl aliquots. Then either TPO (Pepro Tech EC) or the compound of Synthetic Example 4 dissolved in dimethyl sulfoxide (DMSO) was diluted 83-fold with IMDM containing 10% FBS and added to the aforementioned cell suspension in 20-μl aliquots. The cell suspension was incubated in a CO2 incubator (5% CO2, 37° C.) for 4 days. Cell proliferation was assayed using WST-8 reagent (Kishida Chemical Co., Ltd.) according to instructions by the manufacturer. A 10-μl aliquot of 5 mM WST-8 reagent solution was added to each well of the tissue culture plate, and the plate was incubated at 37° C. for 4 h. The formazan pigment generated was detected by measuring the absorbance at 450 nm with a 96-well microplate reader (Nihon Molecular Devices, Spectramax 190).
The compounds of the following Synthetic Examples were tested according to the method of Assay Example 1 to determine the concentration of each compound that yields a growth rate corresponding to 50% of the growth of human leukemic cell line UT-7/EPO-mpl observed in the presence of 10 ng/ml TPO (EC50).
(In general: Tetrazolium dyes change colour on reduction, which living cells bring about.)

A further assay deals with UT7/EPO cells. As to the kind of experiment: Proliferation of mother cell line UT7/EPO expressing no TPO receptor (WST-8). Format: cell-based, human. The note with it: FIG. 2, 4 days incubation. The procedure: as §1
as §2, with “A 10-μl aliquot of 5 mM WST-8 reagent solution was added to each well of the tissue culture plate, and the plate was incubated at 37° C. for 4 h.” left out

Setting [2] is: 4 days incubation, read-out: EC50 (converted).

The values that follow come from US8552031B2, “3-ethylidenehydrazino substituted heterocyclic compounds as thrombopoietin receptor activators” (Nissan Chemical Industries, Ltd., priority 2004, dated 2013).

Structures are written as SMILES. Read-outs that look alike come from different tables or passages of the source.

For the molecule `CC(=NNC(=S)NCC(=O)O)c1csc(-c2ccc(Cl)c(Cl)c2)c1O` [Synthetic Example 4, 2-[(2-{1-[5-(3,4-dichlorophenyl)-4-hydroxythiophen-3-yl]-etylidene}-hydrazinocarbonothioyl)amino]acetic acid], the “proliferation of TPO-responsive UT7/EPO-mpl cells” value in assay [1] (FIG. 1, 4 days incubation, WST-8, absorbance at 450 nm) was “stimulated by the compound of Synthetic Example 4 in a concentration-dependent manner”. Also, in assay [1] (4 days incubation), the EC50 is listed as 5.6 ng/mL. In addition, the “selectivity of action on the TPO receptor” value in assay [1] (concluded from UT7/EPO-mpl versus UT7/EPO proliferation (FIG. 1, FIG. 2)) is recorded as “acts on the TPO receptor selectively as an activator”. For the same molecule, in the assay with UT7/EPO cells, the “effect on proliferation of UT7/EPO, the mother cell line” value is recorded as “no effect”.
`CC(=NNC(=S)N1CCC(C(=O)O)CC1)c1csc(-c2ccc(C(C)(C)C)cc2)c1O` [Synthetic Example 14, 1-{1-[5-(4-t-butylphenyl)-4-hydroxy-thiophen-3-yl]-ethylidene-hydrazinothiocarbonyl}-piperidine-4-carboxylic acid]: the EC50 in assay [1] (setting [2]) is 5.66 nM.
On the same count and under the same terms, then `CC(=NNC(=S)N1CCC(C(=O)O)CC1)c1csc(-c2cccc(Cl)c2)c1O` [Synthetic Example 15, 1-{1-[5-(3-chlorophenyl)-4-hydroxythiophen-3-yl]-ethylidene-hydrazinothiocarbonyl}-piperidine-4-carboxylic acid], with 5.94 nM; and `CC(=NNC(=S)N1CCC(C(=O)O)CC1)c1nn(C)c(-c2ccc(C(F)(F)F)cc2)c1O` [Synthetic Example 16, 1-{1-[4-hydroxy-1-methyl-5-(4-trifluoromethylphenyl)-1H-pyrazol-3-yl]-ethylidene-hydrazinothiocarbonyl}-piperidine-4-carboxylic acid], with 8.09 nM.
Still for that read-out and setting: then `CC(=NNC(=S)N1CCC(C(=O)O)CC1)c1nn(C)c(-c2ccc(Cl)c(Cl)c2)c1O` [Synthetic Example 17, 1-{1-[5-(3,4-dichlorophenyl)-4-hydroxy-1-methyl-1H-pyrazol-3-yl]-ethylidene-hydrazinothiocarbonyl}-piperidine-4-carboxylic acid], with 16.6 nM; and `CC(=NNC(=S)N1CCCC(C(=O)O)C1)c1csc(-c2ccc(Cl)c(Cl)c2)c1O` (centres unmarked) [Synthetic Example 18, 1-{1-[5-(3,4-dichlorophenyl)-4-hydroxythiophen-3-yl]-ethylidene-hydrazinothiocarbonyl}-piperidine-3-carboxylic acid], with 46.6 nM.
Still for that read-out and setting: then `CCN(CC)C(=O)C1CCN(C(=S)NN=C(C)c2csc(-c3ccc(Cl)c(Cl)c3)c2O)CC1` [Synthetic Example 19, 1-{1-[5-(3,4-dichlorophenyl)-4-hydroxythiophen-3-yl]-ethylidene-hydrazinothiocarbonyl}-piperidine-4-carboxylic acid diethylamide], with 49.3 nM; and `CC(=NNC(=S)N1CCC(O)CC1)c1csc(-c2ccc(Cl)c(Cl)c2)c1O` [Synthetic Example 20, 1-{1-[5-(3,4-dichlorophenyl)-4-hydroxythiophen-3-yl]-ethylidene-hydrazinothiocarbonyl}-piperidin-4-ol], with 6.98 nM; and `CC(=NNC(=S)N1CCCC(O)C1)c1csc(-c2ccc(Cl)c(Cl)c2)c1O` (centres unmarked) [Synthetic Example 21, 1-{1-[5-(3,4-dichlorophenyl)-4-hydroxythiophen-3-yl]-ethylidene-hydrazinothiocarbonyl}-piperidin-3-ol], with 51.8 nM.
For `CC(=NNC(=S)N1CCC(CO)CC1)c1csc(-c2ccc(Cl)c(Cl)c2)c1O` [Synthetic Example 22, 1-{1-[5-(3,4-dichlorophenyl)-4-hydroxythiophen-3-yl]-ethylidene-hydrazinothiocarbonyl}-piperidine-4-methanol], in assay [1] (setting [2]), the EC50 was 45.8 nM.
As to `COCCCNC(=S)NN=C(C)c1csc(-c2ccc(Cl)c(Cl)c2)c1O` [Synthetic Example 23, 1-(2-{1-[5-(3,4-dichlorophenyl)-4-hydroxythiophen-3-yl]-ethylidene}-hydrazinocarbonothioyl)amino-3-methoxypropane], the EC50 in assay [1] (setting [2]) is 76.3 nM.

As usually defined, the EC50 is the concentration that produces a half-maximal response.
